{"source": "paper PMC11969438", "about": "(Inorganic Chemistry Frontiers, 2025)", "key": {"[1]": {"tested_on": "NF-κB pathway (STING-dependent)", "test": "NF-κB-inducible SEAP reporter in THP1-Dual reporter cell model", "format": "cell-based, human", "text": "(§1) The THP1-Dual™ reporter cell model for simultaneously monitoring the activity of the IRF and NF-κB pathway contains an IRF-inducible luciferase reporter under the control of an ISG54 minimal promoter in conjunction with five interferon (IFN)-stimulated response elements, and an induced SEAP driven by an IFN-β minimal promoter fused to five copies of the NF-κB consensus transcriptional response element and three copies of the c-Rel binding site. The luciferase and SEAP reporter are measurable in the cell culture supernatant using QUANTI-Luc™ 4 Lucia/Gaussia (InvivoGen) and QUANTI-Blue™ (InvivoGen) solution, respectively. Cells were seeded at 1 × 10^5 cells per well in 96-well plates in RPMI-1640 medium, supplemented with 10% FCS, L-glutamine and Pen-Strep. After 2 h of recovery, the compounds were applied at the concentrations indicated in triplicate. The cell culture supernatant (SN) was collected after 24 h of drug incubation and secreted luciferase and SEAP reporter levels were measured according to the manufacturer's recommendations. In brief, for the detection of luciferase, 20 μL of SN were transferred into 96-well white opaque plates, and 30 μL of QUANTI-Luc™ reagent were added per well using an injector module in a multimode microplate reader (Tecan Spark, Zurich, Switzerland). Luminescence was recorded at a reading time of 0.1 second. For the detection of SEAP, 10 μL of SN were transferred to 96-well plates and 90 μL of QUANTI-Blue™ were added per well. Absorbance was measured at 620 nm. Half-maximal effective concentrations (EC50 values) were derived via interpolation from dose–response curves, modeled with the four-parameter logistic (4PL) nonlinear regression model in GraphPad Prism. For comparison, the maximal response rate of the prodrug was depicted in the percent of the maximal response rate achieved by SR-717 or MSA-2 (%EMAX) at the respective concentrations tested. Activatability, tested in co-incubation experiments with AA (50 μM), was expressed as the area under the curve (AUC) ratio of +AA vs. −AA-treated cells. The STING-dependency of the reporter induction was tested by co-administration of the STING inhibitor H-151 (10 μM), added to the cell culture medium 2 h before applying the investigated compounds. In addition to monitoring secreted reporter levels, the cell viability of the reporter cells was determined after 24 h of drug treatment by an MTT-based cell viability assay."}, "[2]": {"tested_on": "IRF pathway (STING-dependent)", "parameters": "method as in PMID 32820126", "conditions": "read-out: IRF EC50, previous report; cited from earlier work"}, "[3]": {"tested_on": "IRF pathway (STING-dependent)", "test": "IRF-inducible luciferase reporter in THP1-Dual reporter cell model", "format": "cell-based, human", "text": "as §1"}, "[4]": {"tested_on": "THP1-Dual, HCT116, HCT116/OxR and CT-26 cells", "test": "MTT-based cell viability assay, 72 h, statements over all investigated cell lines", "parameters": "species or system human and murine", "conditions": "none of the investigated cell lines vulnerable, read-out: IC50 of free single agent", "procedure": "Cell models were seeded (2–2.5 × 10^3 cells per well) in 96-well plates. After 24 h of recovery, the compounds were applied at the concentrations indicated in triplicate. Cell viability was determined after 72 h of continuous drug incubation using an MTT-based cell viability assay (EZ4U, Biomedica, Vienna, Austria) according to the manufacturer's recommendations. Absorbance was measured at 450 nm (vs. 620 nm as reference) using a multimode microplate reader (Tecan Spark, Zurich, Switzerland). Half-maximal inhibitory concentrations (IC50 values) were derived via interpolation from dose–response curves, modeled with the four-parameter logistic (4PL) nonlinear regression model in GraphPad Prism (La Jolla, CA, USA) from at least three independent experiments."}, "[5]": {"conditions": "24 h, maximal response relative to SR-717"}, "[6]": {"conditions": "24 h exposure, normalized to cell viability, oxaliplatin in combinations 5 μM"}}, "note": "Like-named read-outs stand apart in the source and are kept apart here.", "data": [{"smiles": "O=C(Nc1cc(F)c(F)cc1C(=O)[O-])c1ccc(-n2ccnc2)nn1.[Li+]", "note": "[SR-717]", "values": [{"measurement": "NF-κB EC50 ratio fold SR-717", "setting": "[1]; 24 h", "result": 1.0, "unit": "fold"}, {"measurement": "activation of NF-κB signaling pathway", "setting": "[1]; 24 h", "result": "robustly activated"}, {"measurement": "NF-κB %EMAX of SR-717", "setting": "[1]; [5]", "result": 100, "unit": "%"}, {"measurement": "EC50", "setting": "[1]; [6]", "result": 5800, "unit": "nM"}, {"measurement": "EC50", "setting": "[2]", "result": 2100, "unit": "nM"}, {"measurement": "IRF EC50 ratio fold SR-717", "setting": "[3]; 24 h", "result": 1.0, "unit": "fold"}, {"measurement": "activation of IRF signaling pathway", "setting": "[3]; 24 h", "result": "robustly activated"}, {"measurement": "IRF %EMAX of SR-717", "setting": "[3]; [5]", "result": 100, "unit": "%"}, {"measurement": "EC50", "setting": "[3]; [6]", "result": 2900, "unit": "nM"}, {"measurement": "impact of reducing conditions on IRF-induced reporter signal (AUC ratio +AA/−AA)", "setting": "[3]; AA 50 μM", "result": "no notable modulation"}, {"measurement": "IC50", "setting": "[4]", "result": "> 75000", "unit": "nM"}]}]}
